Reference: US9637451B2, “Indole compound” (ASTELLAS PHARMA INC., priority 2014, dated 2017)

Columns and labels:
human MT2 receptor = biological target: T1, human MT2 receptor (Homo sapiens, UniProt P49286); test: Activation of human MT2 receptor in receptor-expressing cells, intracellular Ca2+ by FLIPR; format: cell-based
T1 construct: expressed in transfected cells
T1 sequence (P49286 1-362): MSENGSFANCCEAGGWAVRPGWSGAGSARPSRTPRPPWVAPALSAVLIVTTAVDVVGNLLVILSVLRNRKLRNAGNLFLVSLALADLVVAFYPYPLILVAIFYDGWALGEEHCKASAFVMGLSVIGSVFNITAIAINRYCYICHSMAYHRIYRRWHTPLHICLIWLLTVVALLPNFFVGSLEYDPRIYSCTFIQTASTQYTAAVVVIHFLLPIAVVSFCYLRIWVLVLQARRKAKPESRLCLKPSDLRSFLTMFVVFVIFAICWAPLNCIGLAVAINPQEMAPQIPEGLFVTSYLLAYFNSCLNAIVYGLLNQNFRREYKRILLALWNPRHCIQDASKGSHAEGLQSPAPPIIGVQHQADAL

SD female rats = test: Effect of test compound on urethral pressure in anesthetized rats; format: in vivo, rat; settings: dose of 0.01 mg/kg
Excerpt: SD female rats were anesthetized with urethane and subjected to laparotomy. Then, the bladder apex was incised and a catheter was inserted from the bladder apex. Further, the catheter tip was ligated and fixed to be located in the proximal urethra portion. The catheter was connected to a pressure transducer and an infusion pump. Further, a catheter for administrating the compound was fitted into the femoral vein. Physiological saline was continuously infused into the urethra and the perfusion pressure in the urethra was measured. After the urethral pressure was stabilized, the test compound that had been dissolved in physiological saline, or physiological saline including 5% dimethylacetamide and 0.5% Cremophor was administered intravenously at 0.01 mg/kg or 0.1 mg/kg, and a change in urethral pressures was measured.
Further, the results of administering an active metabolite of midodrine (ST-1059: purchased from CHEMIZON) (J. Urology, 118, 980-982 (1977)) which is an α1 adrenoceptor agonist and is confirmed to have a clinical effect on stress urinary incontinence at doses, 0.01 mg/kg and, 0.1 mg/kg in rats, presumed to correspond to the clinical doses are referenced and shown in the Tables below.
The increment value in the urethral pressures of ramelteon and the Example compounds of the present invention at the time of administration are shown in Table 3. Ex represents Example No. of the test compound and N.T represents Not Tested.

human MT1 receptor = biological target: T2, human MT1 receptor (Homo sapiens, UniProt P48039); test: Activation of human MT1 receptor in receptor-expressing cells, intracellular Ca2+ by FLIPR; format: cell-based
T2 construct: expressed in transfected cells

[1] = maximum reaction by ramelteon taken as 100%

T2 sequence (P48039 whole entry): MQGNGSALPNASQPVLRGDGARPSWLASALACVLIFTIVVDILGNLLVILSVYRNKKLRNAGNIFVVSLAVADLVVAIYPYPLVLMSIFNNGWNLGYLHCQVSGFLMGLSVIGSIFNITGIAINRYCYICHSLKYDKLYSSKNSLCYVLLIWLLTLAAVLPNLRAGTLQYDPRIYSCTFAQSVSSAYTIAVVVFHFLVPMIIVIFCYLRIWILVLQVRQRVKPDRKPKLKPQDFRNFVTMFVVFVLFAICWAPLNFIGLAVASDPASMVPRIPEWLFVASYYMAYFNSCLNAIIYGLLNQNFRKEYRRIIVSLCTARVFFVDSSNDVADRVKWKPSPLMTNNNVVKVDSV

## CC(=O)NCCc1c[nH]c2cc(F)c(OCCOc3ccn(C)n3)cc12 [Example 6, N-[2-(6-fluoro-5-{2-[(1-methyl-1H-pyrazol-3-yl)oxy]ethoxy}-1H-indol-3-yl)ethyl]acetamide]
Human MT2 receptor; HEK293 cells stably expressing human MT2 and Gq/i chimeric G protein, Ca2+ FLIPR
  EC50: 10 nM
Human MT2 receptor; [1]
  Emax: 119%
SD female rats
  urethral pressure increasing action: good urethral pressure increasing action
Human MT1 receptor; HEK293EBNA1 cells stably expressing human MT1 and Gq/i chimeric G protein, Ca2+ FLIPR
  EC50: 7.5 nM
Human MT1 receptor; [1]
  Emax: 103%
